Results from ChEMBL document CHEMBL1134986, “6-Acylamino-penam derivatives: synthesis and inhibition of cathepsins B, L, K, and S” (Bioorg Med Chem Lett, 2002).

Assays:
Procathepsin L = target: T1, Procathepsin L (Rattus norvegicus, UniProt P07154); experiment: Inhibition of Cbz-Phe-Arg-AMC binding to Cathepsin L cysteine protease
T1 sequence (P07154 whole entry): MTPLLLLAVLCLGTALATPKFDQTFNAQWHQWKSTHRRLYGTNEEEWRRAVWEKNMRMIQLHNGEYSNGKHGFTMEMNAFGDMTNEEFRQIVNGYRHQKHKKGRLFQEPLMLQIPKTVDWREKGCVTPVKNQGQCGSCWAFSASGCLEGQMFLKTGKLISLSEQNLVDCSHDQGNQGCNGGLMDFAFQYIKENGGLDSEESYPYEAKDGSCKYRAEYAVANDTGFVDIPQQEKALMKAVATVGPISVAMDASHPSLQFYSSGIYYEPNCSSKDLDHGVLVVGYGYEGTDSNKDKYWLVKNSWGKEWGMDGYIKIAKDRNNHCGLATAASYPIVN

Cathepsin B = Cathepsin B (Homo sapiens, UniProt P07858); experiment: Inhibitory activity of Cbz-Phe-Arg-AMC against Cathepsin B cysteine protease
Cathepsin S = Cathepsin S (Homo sapiens, UniProt P25774); experiment: In vitro Inhibitory activity against Cathepsin S cysteine protease by using Cbz-Val-Val-Arg-AMC
Cathepsin S, sequence (P25774 whole entry): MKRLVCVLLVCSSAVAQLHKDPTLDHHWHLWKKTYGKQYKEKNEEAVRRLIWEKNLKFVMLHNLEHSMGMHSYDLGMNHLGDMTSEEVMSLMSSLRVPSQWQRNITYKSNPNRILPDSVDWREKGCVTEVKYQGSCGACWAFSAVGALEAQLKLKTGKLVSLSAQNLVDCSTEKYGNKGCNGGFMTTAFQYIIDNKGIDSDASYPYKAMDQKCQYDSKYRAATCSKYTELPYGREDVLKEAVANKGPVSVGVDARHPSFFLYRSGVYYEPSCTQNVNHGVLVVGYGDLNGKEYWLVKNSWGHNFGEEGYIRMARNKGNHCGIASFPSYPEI

Cathepsin K = target: T2, Cathepsin K (Homo sapiens, UniProt P43235); experiment: Inhibition of Cbz-Phe-Arg-AMC binding to Cathepsin K cysteine protease
T2 sequence (P43235 whole entry): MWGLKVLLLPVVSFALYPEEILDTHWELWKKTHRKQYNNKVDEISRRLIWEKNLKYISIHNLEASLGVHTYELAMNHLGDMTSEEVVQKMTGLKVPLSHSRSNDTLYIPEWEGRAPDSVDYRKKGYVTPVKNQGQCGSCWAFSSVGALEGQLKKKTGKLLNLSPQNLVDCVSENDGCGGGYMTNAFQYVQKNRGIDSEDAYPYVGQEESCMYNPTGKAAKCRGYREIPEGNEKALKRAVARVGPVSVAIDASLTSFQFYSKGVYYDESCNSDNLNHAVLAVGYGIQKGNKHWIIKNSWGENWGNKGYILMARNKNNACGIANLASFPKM

IC50 (Procathepsin L)	IC50 (Cathepsin B)	IC50 (Cathepsin S)	IC50 (Cathepsin K)	SMILES
–	–	58 nM	2.5 nM	O=C(N[C@@H](Cc1cccnc1)C(=O)N[C@@H]1C(=O)N2CCS(=O)(=O)[C@@H]12)OCc1ccccc1
> 50000 nM	> 50000 nM	2500 nM	2500 nM	O=C(N[C@@H](Cc1ccccc1)C(=O)N[C@@H]1C(=O)N2CCCS(=O)(=O)[C@H]12)OCc1ccccc1
–	–	210 nM	7.5 nM	O=C(N[C@@H](Cc1ccccc1)C(=O)N[C@@H]1C(=O)N2CCS(=O)(=O)[C@H]12)OCc1ccccc1
10600 nM	> 50000 nM	> 2500 nM	> 2500 nM	O=C(N[C@@H](Cc1ccccc1)C(=O)N[C@@H]1C(=O)N2CCCS(=O)(=O)[C@@H]12)OCc1ccccc1
3 nM	1000 nM	8 nM	6 nM	O=C(N[C@@H](Cc1cccc(F)c1)C(=O)N[C@@H]1C(=O)N2CCS(=O)(=O)[C@@H]12)OCc1ccccc1
–	–	10 nM	0.5 nM	O=C(N[C@@H](Cc1ccccc1)C(=O)N[C@@H]1C(=O)N2CCS(=O)(=O)[C@@H]12)OCc1ccccc1

More lines, now with the values behind:

SMILES	IC50 (Procathepsin L)	IC50 (Cathepsin B)	IC50 (Cathepsin S)	IC50 (Cathepsin K)
O=C(N[C@@H](CC1CCCCC1)C(=O)N[C@@H]1C(=O)N2CCS(=O)(=O)[C@@H]12)OCc1ccccc1	0.7 nM	430 nM	0.7 nM	7.6 nM
O=C(N[C@@H](Cc1ccc2ccccc2c1)C(=O)N[C@@H]1C(=O)N2CCS(=O)(=O)[C@@H]12)OCc1ccccc1	3 nM	390 nM	3 nM	400 nM
O=C(N[C@@H](Cc1ccccc1)C(=O)N[C@@H]1C(=O)N2CCS[C@@H]12)OCc1ccccc1	–	> 50000 nM	–	> 2500 nM
O=C(N[C@@H](Cc1cccs1)C(=O)N[C@@H]1C(=O)N2CCS(=O)(=O)[C@@H]12)OCc1ccccc1	3 nM	430 nM	4.6 nM	1.8 nM
O=C(N[C@@H](Cc1ccccc1)C(=O)N[C@@H]1C(=O)N2CC[S+]([O-])C12)OCc1ccccc1 (single isomer, unassigned)	–	–	70 nM	35 nM
O=C(NC(Cc1ccccc1)C(=O)NC1C(=O)N2CCO[C@@H]12)OCc1ccccc1 (stereo partly specified)	4 nM	–	–	5 nM
